The record followed here is patent US11825838B2, “Tricyclic carboxamides for controlling arthropods” (Bayer CropScience Aktiengesellschaft, priority 2017, dated 2023).

By mortality is commonly meant the share of the test organisms that died.

What all share (assay type): in vivo
Test [1] has as its system Phaedon cochleariae. The test is described as follows: Phaedon cochleariae spray test (PHAECO). Particulars: application rate 100 g/ha, spray, after 7 days; for pest or weed control at 100 g/ha: Phaedon cochleariae, 168 h, read-out: efficacy. The protocol:
Phaedon cochleariae—Spray Test
(§1) To produce a suitable active ingredient formulation, 1 part by weight of active ingredient is dissolved with the specified parts by weight of solvent and made up to the desired concentration with water containing an emulsifier concentration of 1000 ppm. To produce further test concentrations, the formulation is diluted with emulsifier-containing water.
After 7 days, the efficacy in % is determined. 100% means that all the beetle larvae have been killed; 0% means that no beetle larvae have been killed.
Phaedon cochleariae—Spray Test (PHAECO)
(§2) To produce a suitable active compound formulation, 1 part by weight of active compound is dissolved with the specified parts by weight of solvent and made up to the desired concentration with water containing an emulsifier concentration of 1000 ppm. To produce further test concentrations, the formulation is diluted with emulsifier-containing water.
Discs of Chinese cabbage leaves (Brassica pekinensis) are sprayed with an active compound formulation of the desired concentration and, after drying, populated with larvae of the mustard beetle (Phaedon cochleariae).
After the desired time, the efficacy in % is determined. 100% means that all the beetle larvae have been killed; 0% means that no beetle larvae have been killed.

For test [2], the system named is Myzus persicae. The test is described as follows: Myzus persicae oral test. The conditions noted are these: application rate 4 ppm, after 5 days. The protocol:
To produce a suitable active compound preparation, 1 part by weight of active compound is dissolved with the specified amounts by weight of solvent and made up to the desired concentration with water.
50 ul of the active compound preparation are transferred to microtiter plates and made up to a final volume of 200 μl with 150 μl of IPL41 insect medium (33%+15% sugar). Then the plates are sealed with parafilm through which a mixed population of the green peach aphid (Myzus persicae), which is located in a second microtiter plate, can pierce and absorb the solution.
(§3) After 5 days, the efficacy in % is determined. 100% means that all the aphids have been killed; 0% means that no aphids have been killed.

For test [3], the system named is Tetranychus urticae. Nature of the test: Tetranychus urticae spray test, OP-resistant (TETRUR). The conditions noted are these: spray, after 6 days. The protocol:
Tetranychus urticae—Spray Test, OP-Resistant
as §1
Discs of bean leaves (Phaseolus vulgaris) infested with all stages of the greenhouse red spider mite (Tetranychus urticae) are sprayed with an active compound preparation of the desired concentration.
After 6 days, the efficacy in % is determined. 100% means that all the spider mites have been killed; 0% means that no spider mites have been killed.
Tetranychus urticae—Spray Test; OP-Resistant (TETRUR)
as §2
Discs of bean leaves (Phaseolus vulgaris) infested with all stages of the greenhouse red spider mite (Tetranychus urticae) are sprayed with an active compound formulation of the desired concentration.
After the desired time, the efficacy in % is determined. 100% means that all the spider mites have been killed; 0% means that no spider mites have been killed.

Test [4] concerns Myzus persicae. Nature of the test: Myzus persicae spray test (MYZUPE). The conditions noted are these: application rate 100 g/ha, spray, after 5 days. The procedure:
Myzus persicae—Spray Test
as §1
Discs of Chinese cabbage leaves (Brassica pekinensis) infested by all stages of the green peach aphid (Myzus persicae) are sprayed with an active compound preparation of the desired concentration.
as §3
Myzus Persicae—Spray Test (MYZUPE)
as §2
Discs of Chinese cabbage leaves (Brassica pekinensis) infested with all stages of the green peach aphid (Myzus persicae) are sprayed with an active compound formulation of the desired concentration.
After the desired time, the efficacy in % is determined. 100% means that all the aphids have been killed; 0% means that no aphids have been killed.

For test [5], the system named is Spodoptera frugiperda. The test is described as follows: Spodoptera frugiperda spray test (SPODFR). Particulars: application rate 100 g/ha, spray, after 7 days; for pest or weed control at 100 g/ha: Spodoptera frugiperda, 168 h, read-out: efficacy. The protocol:
Spodoptera frugiperda—Spray Test
as §1
Leaf discs of maize (Zea mays) are sprayed with an active ingredient formulation of the desired concentration and, after drying, populated with caterpillars of the armyworm (Spodoptera frugiperda).
After 7 days, the efficacy in % is determined. 100% means that all the caterpillars have been killed; 0% means that no caterpillar has been killed.
Spodoptera frugiperda—Spray Test (SPODFR)
as §2
Leaf discs of maize (Zea mays) are sprayed with an active compound formulation of the desired concentration and, after drying, populated with caterpillars of the armyworm (Spodoptera frugiperda).
After the desired time, the efficacy in % is determined. 100% means that all the caterpillars have been killed; 0% means that no caterpillar has been killed.

Test [6] has as its system Rhipicephalus sanguineus. The test is described as follows: Rhipicephalus sanguineus in vitro contact test with adult brown dog ticks. Particulars: application rate 5 μg/cm^2 (=500 g/ha), after 48 h, adult dog ticks dead or moribund. The procedure: Rhipicephalus sanguineus—In Vitro Contact Tests with Adult Brown Dog Ticks
(§4) For the coating of the test tubes, 9 mg of active ingredient are first dissolved in 1 ml of acetone p.a. and then diluted to the desired concentration with acetone p.a. 250 μl of the solution are distributed homogeneously on the inner walls and the base of a 25 ml glass tube by turning and rocking on an orbital shaker (rocking rotation at 30 rpm for 2 h). With 900 ppm of active ingredient solution and internal surface area 44.7 cm^2, given homogeneous distribution, an area-based dose of 5 μg/cm^2 is achieved.
After the solvent has evaporated off, the tubes are populated with 5-10 adult dog ticks (Rhipicephalus sanguineus), sealed with a perforated plastic lid and incubated in a horizontal position in the dark at room temperature and ambient humidity. After 48 h, efficacy is determined. To this end, the ticks are knocked to the base of the tube and incubated on a hotplate at 45-50° C. for not more than 5 min. Ticks which remain motionless on the base or move in such an uncoordinated manner that they are unable to deliberately avoid the heat by climbing upwards are considered to be dead or moribund.
An efficacy of 100% means that all the ticks were dead or moribund. 0% efficacy means that none of the ticks were harmed.

Test [7] relates to Musca domestica. The test is described as follows: Musca domestica test. Particulars: application rate 100 ppm, adult houseflies, after 2 days. The procedure: (§5) Solvent: dimethyl sulfoxide
(§6) To produce a suitable active ingredient formulation, 10 mg of active ingredient are mixed with 0.5 ml of dimethyl sulfoxide, and the concentrate is diluted with water to the desired concentration.
Vessels containing a sponge treated with sugar solution and the active ingredient formulation of the desired concentration are populated with 10 adult houseflies (Musca domestica).
After 2 days, the rate of extermination in % is determined. 100% means that all of the flies have been killed; 0% means that none of the flies have been killed.

Test [8] has as its system Ctenocephalides felis. The test is described as follows: Ctenocephalides felis oral test. Particulars: application rate 100 ppm in citrated cattle blood, after 2 days. The protocol:
Ctenocephalides felis—Oral Test
as §5
To produce a suitable active ingredient formulation, 10 mg of active ingredient are mixed with 0.5 ml of dimethyl sulfoxide. Dilution with citrated cattle blood gives the desired concentration.
About 20 unfed adult cat fleas (Ctenocephalides felis) are placed into a chamber which is closed at the top and bottom with gauze. A metal cylinder whose bottom end is closed with parafilm is placed onto the chamber. The cylinder contains the blood/active ingredient formulation, which can be imbibed by the fleas through the parafilm membrane.
After 2 days, the rate of extermination in % is determined. 100% means that all of the fleas have been killed; 0% means that none of the fleas have been killed.

The subject of test [9] is Boophilus microplus. Nature of the test: Boophilus microplus injection test. Particulars: application rate 20 μg/animal, assessed after 7 days by laying of fertile eggs. The protocol:
Boophilus microplus—Injection Test
as §5
To produce a suitable active compound preparation, 10 mg of active compound are mixed with 0.5 ml of solvent and the concentrate is diluted to the desired concentration with solvent.
1 μl of the active ingredient solution is injected into the abdomen of 5 engorged adult female cattle ticks (Boophilus microplus). The animals are transferred into dishes and kept in a climate-controlled room.
(§7) Efficacy is assessed after 7 days by laying of fertile eggs. Eggs which are not visibly fertile are stored in a climate-controlled cabinet until the larvae hatch after about 42 days. An efficacy of 100% means that none of the ticks has laid any fertile eggs; 0% means that all the eggs are fertile.

The subject of test [10] is Lucilia cuprina. The test is described as follows: Lucilia cuprina test. The conditions noted are these: application rate 100 ppm, L1 larvae, after 2 days. The procedure: as §5, §6
About 20 L1 larvae of the Australian sheep blowfly (Lucilia cuprina) are transferred into a test vessel containing minced horsemeat and the active compound preparation of the desired concentration.
After 2 days, the rate of extermination in % is determined. 100% means that all the larvae have been killed; 0% means that no larvae have been killed.

The test system of test [11] is cattle ticks (Boophilus microplus) Parkhurst strain, SP-resistant. The test is described as follows: Boophilus microplus dip test. Particulars: application rate 100 ppm, assessed after 7 days by laying of fertile eggs. The procedure:
Boophilus microplus—Dip Test
Test animals: cattle ticks (Boophilus microplus) Parkhurst strain, SP-resistant
as §5
10 mg of active ingredient are dissolved in 0.5 ml of dimethyl sulfoxide. To produce a suitable formulation, the active ingredient solution is diluted with water to the concentration desired in each case. This active ingredient formulation is pipetted into tubes. 8-10 engorged adult female cattle ticks (Boophilus microplus) are transferred into a further tube with holes. The tube is immersed into the active ingredient formulation, and all the ticks are completely wetted. After the liquid has run out, the ticks are transferred on filter discs into plastic dishes and stored in a climate-controlled room.
as §7

Test [12] relates to Anopheles gambiae strain RSPH (homozygot kdr). Nature of the test: Anopheles test (ANPHGB surface treatment). The conditions noted are these: application rate 100 mg/m^2, glazed tile, exposure 30 minutes, 24 hours after contact, read-out: efficacy (mortality). The procedure:
Anopheles Test (ANPHGB Surface Treatment)
Solvent: acetone+2000 ppm rapeseed oil methyl ester (RME)
To produce a suitable active compound formulation, the active compound is dissolved in the solvent (2 mg/ml). The active compound formulation is pipetted onto a glazed tile and, after it has dried off, adult mosquitoes of the species Anopheles gambiae strain RSPH (homozygot kdr) are placed onto the treated tile. The exposure time is 30 minutes.
24 hours after contact with the treated surface, mortality in % is determined. 100% means that all mosquitoes have been killed; 0% means that none of the mosquitoes have been killed.

The subject of test [13] is Ctenocephalides felis. The test is described as follows: Ctenocephalides felis in vitro contact test with adult cat fleas. Particulars: application rate 5 μg/cm^2 (=500 g/ha), after 48 h, adult cat fleas dead or moribund. The protocol:
Ctenocephalides felis—In Vitro Contact Tests with Adult Cat Fleas
as §4
After the solvent has evaporated off, the tubes are populated with 5-10 adult cat fleas (Ctenocephalides felis), sealed with a perforated plastic lid and incubated in a horizontal position at room temperature and ambient humidity. After 48 h, efficacy is determined. To this end, the tubes are stood upright and the fleas are knocked to the base of the tube. Fleas which remain motionless at the base or move in an uncoordinated manner are considered to be dead or moribund.
100% efficacy means that all the fleas were dead or moribund. 0% efficacy means that no fleas were harmed.

As for `O=C(NC1CC1)c1cc(-c2cnn(-c3c(Cl)cc(C(F)(C(F)(F)F)C(F)(F)F)cc3Cl)c2)sc1Cl` [I-T1-16, 2-chloro-N-cyclopropyl-5-{1-[2,6-dichloro-4-(1,1,1,2,3,3,3-heptafluoropropan-2-yl)phenyl]-1H-pyrazol-4-yl}thiophene-3-carboxamide], the pest or weed control at 100 g/ha in test [1] and in test [5] was 100% each time. The efficacy in [2] is reported as 100%; in test [3] (application rate 20 g/ha) it was 90%; in test [3] (application rate 100 g/ha), 100%; in test [4], 100%.

For the molecule `N#CC1(NC(=O)c2cc(-c3cnn(-c4c(Cl)cc(C(F)(C(F)(F)F)C(F)(F)F)cc4Cl)c3)sc2Br)CC1` [I-T1-2], the efficacy in test [1] is given as 100%; in test [6] it was 100%; in test [3] (application rate 20 g/ha) it was 90%; in test [4] it was 100%; in test [9], 100%; in test [5] it was 100%. The molecule further had an efficacy in [11] of 100%. Also, the “efficacy (rate of extermination)” value in test [7], in test [8] and in test [10] was 100% in each case.

`Cn1cc(-c2cnn(-c3c(Cl)cc(C(F)(C(F)(F)F)C(F)(F)F)cc3Cl)c2)cc1C(=O)NC1CC1` [I-T1-3, N-cyclopropyl-4-{1-[2,6-dichloro-4-(1,1,1,2,3,3,3-heptafluoropropan-2-yl)phenyl]-1H-pyrazol-4-yl}-1-methyl-1H-pyrrole-2-carboxamide]: the pest or weed control at 100 g/ha in test [1] and in [5] was 100% each time. Moreover, the efficacy in test [6] and in test [9] was 100% in each case. Also, the “efficacy (rate of extermination)” value in test [8] and in [10] was 100% throughout. Further, in [12], the mortality at 100 mg/m2 lay in the range of 80 to 100%.

Regarding `O=C(NC1CC1)c1csc(-c2cnn(-c3c(Cl)cc(C(F)(C(F)(F)F)C(F)(F)F)cc3Cl)c2)c1` [I-T1-12, N-cyclopropyl-5-{1-[2,6-dichloro-4-(1,1,1,2,3,3,3-heptafluoropropan-2-yl)phenyl]-1H-pyrazol-4-yl}thiophene-3-carboxamide], the efficacy in [13], in [2] and in test [6] was 100% each time. Also, the pest or weed control at 100 g/ha in [1] and in test [5] was 100% throughout. Also, the “efficacy (rate of extermination)” value in test [7], in test [8] and in test [10] was 100% throughout.

Consider `Cc1sc(-c2cnn(-c3c(Cl)cc(C(F)(C(F)(F)F)C(F)(F)F)cc3Cl)c2)cc1C(=O)NC1(C#N)CC1` [I-T1-10], for which the efficacy in test [1], in test [2], in test [3] (application rate 20 g/ha), in test [3] (application rate 100 g/ha), in [9] and in [5] was 100% throughout. Moreover, the “efficacy (rate of extermination)” value in test [7], in test [8] and in [10] was 100% in each case.
